Where “and” joins values, the source holds several entries; their conditions need not be identical. Identical values can stand only once.

The test relates to embryonic stages of S. digitata. Kind of test: Mitochondrial depolarization, mitoscreen JC-1 staining. The class given is cell-based, Setaria digitata. The conditions noted are these: for GMI (Geometric Mean Intensity) of Fluorescence, Mitoscreen-jc-1 staining (Mitochondrial Depolarisation assay): 24 hr, depolarisation = reduction in GMI; for induction of mitochondrial depolarization (result in words): Mfs and eggs, mitoscreen JC-1 staining. The method, then:
Adult female filarial worms Setaria digitata were collected from the peritoneum of cattle, slaughtered at a nearby abattoir in sterile Hanks Balanced Salt Solution (HBSS) medium (Sigma H 2387-1L) and transported to the laboratory in a sterile container. The medium containing 1% glucose (Sigma G 7528), Penicillin 100 units/ml, Streptomycin 100 μg/ml (Sigma P 4333). And Amphotericin-B 0.25 μg/ml (Sigma A 2942) was buffered with NaHCO3 (Sigma S 5761). About 5 to 7 worms were taken in a petridish, washed three times in medium, dissected into small pieces in 10 ml of medium under sterile conditions and incubated at 37° C. for 30 minutes to allow the release of embryonic stages (eggs and microfilariae) into the medium. The embryonic stages were harvested into sterile 15 ml. centrifuge tubes and washed three times by centrifuging at 300 g for 10 minutes each with medium and the final pellet was suspended in 1 ml. of RPMI-1640 medium (Sigma R 8005) supplemented with 10% FBS (Sigma F 2442)
The number of embryonic stages of S. digitata in the above preparation were counted using light microscope, and the suspension was taken in RPMI-1640 medium containing 10% FBS at 1×10^5 embryonic stages/ml. One ml. each was dispensed into individual wells of a 24 well tissue culture plate. One set of wells was taken as untreated control containing only medium with 10% FBS. […] Motility of the Mf was scored under an inverted microscope.
After appropriate treatment and incubation, each set of the cultured embryonic stages of S. digitata were harvested from the 24 well tissue culture plate separately in 15 ml. sterile centrifuge tubes, washed with PBS twice and stained as per requirement following manufacturer's instructions as described below. This was followed by two times washing with PBS and final suspension of the stained embryonic stages was taken in 0.5 ml of sheath fluid (BD Biosciences 342003) before their acquisition in the flow cytometer (BD FACS Calibur, Becten and Dickinson, USA). Analysis was performed on 10,000-acquired events depicted as Dot Plots and Histogram Plots using Cellquest Pro soft ware. All plots were representative of at least 3 experiments. The distinctly clustered populations obtained consistently in the Dot plots for the intra uterine embryonic stages of S. digitata (FIG. 1 a) were gated for Mfs (R-1) and eggs (R-2 and R-3) and analyzed for different assays for apoptosis as described below.
The mitochondrial membrane potential (ΔΨm) was measured using JC-1 probe (a cataionic lipophilic fluorochrome that accumulates in mitochondria in proportion to mitochondrial membrane potential) supplied in mitoscreen JC-1 kit (BD Biosciences 551302). Briefly a suspension of in-vitro cultured embryonic stages at 1×10^5 embryonic stages/ml. was mixed with 0.5 ml of freshly prepared JC-1 working solution for 10-15 minutes at 37° C. in a CO2 incubator followed by two times washing and final suspension of the embryonic stages in 1× assay buffer (supplied with the kit) before acquisition and analysis by flow cytometry. Reduction of fluorescence intensity of the mitoscreen JC-1 stained embryonic stages was taken as the degree of depolarization of mitochondria.

On to `OO` [H2O2], for which the “induction of mitochondrial depolarization (result in words)” value is reported as “dose dependent induction of mitochondrial depolarization was observed”. Moreover, the “GMI (Geometric Mean Intensity) of Fluorescence, Mitoscreen-jc-1 staining (Mitochondrial Depolarisation assay)” value (“GMI (Geometric Mean Intensity)” below) (Eggs, 10 μM) is 1225.16 and 1165.12 and 1295.39. Moreover, where the note is “Microfilariae, 10 μM”, the “GMI (Geometric Mean Intensity)” value was 785.33 and 823.57 and 750.62.

Turning to `CC1=CC(=O)c2c(O)cccc2C1=O` [Plumbagin], the “induction of mitochondrial depolarization (result in words)” value was “dose dependent induction of mitochondrial depolarization was observed”. Besides, the “GMI (Geometric Mean Intensity)” value (Eggs, 10 μM) was 970.16 and 1078.76 and 897.56. Further, the “GMI (Geometric Mean Intensity)” value (Microfilariae, 10 μM) is 435.26 and 476.20 and 398.76.

In the case of `CN[C@@H]1C[C@H]2O[C@@](C)([C@@H]1OC)n1c3ccccc3c3c4c(c5c6ccccc6n2c5c31)C(=O)NC4` [Staurosporine], the “GMI (Geometric Mean Intensity)” value is 1549.35 and 1500.65 and 1510.50 (Eggs, 1 μM); 895.30 and 979.20 and 930.16 (Microfilariae, 1 μM).

The record behind these values is patent US20110124523A1, “High Throughput Method for Detecting Apoptosis of Embryonic Stages of Metazoan Helminthic Parasites” (INSTITUTE OF LIFE SCIENCES, priority 2009, published 2011).
